Experimental findings from patent US10253027B2, “Aryl lactam kinase inhibitors” (Bristol-Myers Squibb Company, priority 2013, dated 2019) are described below.

As a reminder, the IC50 is the midpoint of a concentration-inhibition curve.

The target of the assay is T1, GST-Xa-hAAK1 (Homo sapiens, UniProt Q2M2I8).
T1 construct: made in house
T1 sequence (Q2M2I8 whole entry): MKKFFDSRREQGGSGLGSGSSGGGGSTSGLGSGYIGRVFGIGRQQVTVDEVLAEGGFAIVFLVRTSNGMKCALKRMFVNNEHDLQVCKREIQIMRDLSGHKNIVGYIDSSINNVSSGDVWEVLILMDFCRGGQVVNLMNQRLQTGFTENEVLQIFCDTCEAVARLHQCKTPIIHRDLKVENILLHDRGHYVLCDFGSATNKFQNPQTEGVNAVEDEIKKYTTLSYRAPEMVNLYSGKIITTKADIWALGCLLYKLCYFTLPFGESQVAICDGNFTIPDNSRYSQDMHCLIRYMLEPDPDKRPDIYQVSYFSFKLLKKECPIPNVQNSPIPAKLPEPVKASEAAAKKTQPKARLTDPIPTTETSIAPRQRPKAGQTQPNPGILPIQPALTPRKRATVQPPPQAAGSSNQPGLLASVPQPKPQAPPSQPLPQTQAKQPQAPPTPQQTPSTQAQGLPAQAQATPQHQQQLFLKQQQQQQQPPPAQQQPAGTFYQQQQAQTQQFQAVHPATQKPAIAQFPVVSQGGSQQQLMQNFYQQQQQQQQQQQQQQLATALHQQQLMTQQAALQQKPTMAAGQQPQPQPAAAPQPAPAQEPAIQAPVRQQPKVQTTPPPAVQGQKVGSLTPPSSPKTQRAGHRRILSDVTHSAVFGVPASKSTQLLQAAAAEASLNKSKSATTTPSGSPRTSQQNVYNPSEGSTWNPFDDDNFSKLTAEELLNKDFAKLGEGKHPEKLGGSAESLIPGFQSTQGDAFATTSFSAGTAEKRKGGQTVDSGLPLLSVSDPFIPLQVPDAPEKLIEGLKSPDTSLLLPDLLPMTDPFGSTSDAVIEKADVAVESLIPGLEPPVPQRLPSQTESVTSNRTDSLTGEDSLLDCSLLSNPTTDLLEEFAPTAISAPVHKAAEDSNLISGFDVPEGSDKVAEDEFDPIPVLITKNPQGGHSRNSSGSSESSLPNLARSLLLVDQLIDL
In words: AAK1 Kinase Assay. The assay is classed as biochemical. The following applies: IC50 (nM), ATP 22 μM; 3 hours at room temperature; Caliper LabChip 3000. As for the experimental part: The assays were performed in U-bottom 384-well plates. […] The reactions were initiated by the combination of bacterially expressed, GST-Xa-hAAK1 with substrates and test compounds. The reactions were incubated at room temperature for 3 hours and terminated by adding 60 μl of 35 mM EDTA buffer to each sample. The reactions were analyzed on the Caliper LabChip 3000 (Caliper, Hopkinton, Mass.) by electrophoretic separation of the fluorescent substrate and phosphorylated product. […] Compounds were dissolved at 10 mM in dimethylsulfoxide (DMSO) and evaluated at eleven concentrations. IC50 values were derived by non-linear regression analysis.
As to `COc1cc(NC(=O)[C@@H]2CCCCN2)ccc1-c1cnco1` [Example 73, (S)—N-(3-Methoxy-4-(oxazol-5-yl)phenyl)piperidine-2-carboxamide], the half-inhibitory concentration (IC50) worked out at 1500 nM.
Take `COc1c(-c2cnco2)cc(Cl)c(NC(=O)[C@H](N)CC(C)C)c1Cl` [Example 29, (R)-2-Amino-N-(2,6-dichloro-3-methoxy-4-(oxazol-5-yl)phenyl)-4-methylpentanamide]: the half-inhibitory concentration (IC50) was found to be 344 nM.
As for `COc1cc(NC(=O)[C@H](N)CC(C)C)c(-c2cnco2)cc1-c1cnco1` [Example 104, (R)-2-Amino-N-(5-methoxy-2,4-bis(oxazol-5-yl)phenyl)-4-methylpentanamide], the figure is 760 nM.
As for `COc1cnccc1-c1ccc(NC(=O)[C@H](N)CC(C)C)cc1` [Example 44, (R)-2-Amino-N-(4-(3-methoxypyridin-4-yl)phenyl)-4-methylpentanamide], the figure is 140 nM.
To `COc1cc(NC(=O)C(CC(C)C)N2CCC(N)C2)ccc1-c1cnco1` (stereo not drawn) [Example 30, 2-(3-Aminopyrrolidin-1-yl)-N-(3-methoxy-4-(oxazol-5-yl)phenyl)-4-methylpentanamide] belongs 590 nM; to `COc1cc(NC(=O)C2CNC(=O)N2)ccc1-c1cnco1` (stereo not drawn) [Example 57, N-(3-Methoxy-4-(oxazol-5-yl)phenyl)-2-oxoimidazolidine-4-carboxamide], 780 nM; to `COc1cc(NC(=O)C(N)CCC(F)(F)F)ccc1-c1cnco1` (stereo not drawn) [Example 76, 2-Amino-5,5,5-trifluoro-N-(3-methoxy-4-(oxazol-5-yl)phenyl)pentanamide], 110 nM.
Turning to `COc1cc(NC(=O)[C@@H](CC(C)C)NS(C)(=O)=O)ccc1-c1cnco1` [Example 68, (R)—N-(3-Methoxy-4-(oxazol-5-yl)phenyl)-4-methyl-2-(methylsulfonamido)pentanamide], the IC50 amounted to 67 nM.
As for `COc1cc(NC(=O)[C@H](N)CC(C)C)ccc1-n1cncn1` [Example 26, (R)-2-Amino-N-(3-methoxy-4-(1H-1,2,4-triazol-1-yl)phenyl)-4-methylpentanamide], the figure is 955 nM.
As for `CNc1ccc2ncc(-c3ccc(NC(=O)[C@H](N)CC(C)C)cc3OC)n2n1` [Example 49, (R)-2-Amino-N-(3-(methoxy)-4-(6-(methylamino)imidazo[1,2-b]pyridazin-3-yl)phenyl)-4-methylpentanamide], the figure is 90 nM.
To `COc1cc(NC(=O)[C@H](N)CC(C)C)ccc1-n1ccnc1` [Example 25, (R)—N-(4-(1H-Imidazol-1-yl)-3-methoxyphenyl)-2-amino-4-methylpentanamide] belongs 3250 nM.
For `CC(C)C[C@@H](N)C(=O)Nc1ccc(-c2cnco2)c(-c2ccsc2)c1` [Example 15, (R)-2-Amino-4-methyl-N-(4-(oxazol-5-yl)-3-(thiophen-3-yl)phenyl)pentanamide], the IC50 was found to be 1370 nM.
As for `COc1cc(NC(=O)[C@@H](CC(C)C)NCc2sccc2C)ccc1-c1cnco1` [Example 66, (R)—N-(3-Methoxy-4-(oxazol-5-yl)phenyl)-4-methyl-2-(((3-methylthiophen-2-yl)methyl)amino)pentanamide], the figure is 110 nM; as for `CCN(C(=O)[C@H](N)CC(C)C)c1ccc(-c2cnco2)c(OC)c1` [Example 10, (R)-2-Amino-N-ethyl-N-(3-methoxy-4-(oxazol-5-yl)phenyl)-4-methylpentanamide], 5010 nM.
To `COc1cc(NC(=O)[C@@H]2NCCC[C@@H]2C(C)C)ccc1-c1cnco1` [Example 88, (2R,3R)-3-Isopropyl-N-(3-methoxy-4-(oxazol-5-yl)phenyl)piperidine-2-carboxamide] belongs 8 nM; to `COc1cc(NC(=O)[C@@H](N)CC(C)C)c(F)cc1-c1cnco1` [Example 99, (S)-2-Amino-N-(2-fluoro-5-methoxy-4-(oxazol-5-yl)phenyl)-4-methylpentanamide], 780 nM; to `COc1cc(NC(=O)C(CN)CC(C)C)ccc1-c1cnco1` (stereo not drawn) [Example 35, 2-(Aminomethyl)-N-(3-methoxy-4-(oxazol-5-yl)phenyl)-4-methylpentanamide], 83 nM.
As for `COc1cc(NC(=O)C(N)C2CCCCC2C)ccc1-c1cnco1` (mixture of isomers) [Example 93, 2-Amino-N-(3-methoxy-4-(oxazol-5-yl)phenyl)-2-(2-methylcyclohexyl)acetamide], the figure is 20 nM.
In the case of `CC(C)C[C@@H](N)C(=O)Nc1ccc(-c2ccncc2)cc1-c1nn[nH]n1` [Example 115, (R)-2-Amino-4-methyl-N-(4-(pyridin-4-yl)-2-(2H-tetrazol-5-yl)phenyl)pentanamide], the IC50 came out at 28 nM.
To `COc1cc(NC(=O)[C@@H](CC(C)C)NCc2ccc(Cl)cc2)ccc1-c1cnco1` [Example 60, (R)-2-((4-Chlorobenzyl)amino)-N-(3-methoxy-4-(oxazol-5-yl)phenyl)-4-methylpentanamide] belongs 210 nM; to `COc1cc(NC(=O)[C@H](N)CC(C)C)c(F)cc1-c1cnco1` [Example 98, (R)-2-Amino-N-(2-fluoro-5-methoxy-4-(oxazol-5-yl)phenyl)-4-methylpentanamide], 1120 nM; to `CC(C)C[C@@H](N)C(=O)Nc1ccc(-c2cnco2)c(N(C)C)c1` [Example 42, 2-Amino-N-(3-(dimethylamino)-4-(oxazol-5-yl)phenyl)-4-methylpentanamide], 860 nM.
As for `CC(C)C[C@@H](N)C(=O)Nc1ccc(-c2ccncc2)cc1-c1cn[nH]c1` [Example 112, (R)—N-(2-(1H-pyrazol-4-yl)-4-(pyridin-4-yl)phenyl)-2-amino-4-methylpentanamide], the figure is 1340 nM.
As to `CC(C)C[C@@H](N)C(=O)Nc1ccc(-c2cnco2)c(O)c1` [Example 16, (R)-2-Amino-N-(3-hydroxy-4-(oxazol-5-yl)phenyl)-4-methylpentanamide], the concentration for half-maximal inhibition (IC50) was 100 nM.
To `COc1cc(NC(=O)[C@H](N)CC(C)C)ccc1-c1ccncn1` [Example 117, (R)-2-Amino-N-(3-methoxy-4-(pyrimidin-4-yl)phenyl)-4-methylpentanamide] belongs 460 nM; to `COc1cc(NC(=O)C(CC(C)C)NC2CNC2)ccc1-c1cnco1` (stereo not drawn) [Example 32, 2-(Azetidin-3-ylamino)-N-(3-methoxy-4-(oxazol-5-yl)phenyl)-4-methylpentanamide], 1140 nM; to `COc1cc(NC(=O)C2CNCCN2C(C)C)ccc1-c1cnco1` (stereo not drawn) [Example 86, 1-Isopropyl-N-(3-methoxy-4-(oxazol-5-yl)phenyl)piperazine-2-carboxamide], 52 nM.
To `CNC1(C(=O)Nc2ccc(-c3cnco3)c(OC)c2)CC1` [Example 58, N-(3-Methoxy-4-(oxazol-5-yl)phenyl)-1-(methylamino)cyclopropanecarboxamide] belongs 4400 nM; to `COc1cc(NC(=O)[C@H](N)CC(C)C)ccc1-c1cnc[nH]1` [Example 109, (R)—N-(4-(1H-Imidazol-5-yl)-3-methoxyphenyl)-2-amino-4-methylpentanamide], 790 nM; to `COc1cc(NC(=O)C2NCCCC2C(C)C)ccc1-c1cnco1` (stereo not drawn) [Example 85, 3-Isopropyl-N-(3-methoxy-4-(oxazol-5-yl)phenyl)piperidine-2-carboxamide], 8 nM.
